Experimental data reported in patent publication US20080280817A1, “MODIFIED AMINO ACID FOR THE INHIBITION OF PLATELET AGGREGATION” (NOVARTIS AG, priority 2002, published 2008).

Legend:
Type in all cases: cell-based, human
[1] = test system: platelet rich plasma (PRP); test: Collagen-stimulated platelet aggregation in PRP (aggregometer, optical density)
Procedure: (§1) Freshly drawn venous blood from healthy volunteers is collected into 0.1 vol. […] trisodium citrate. The donors have not taken any medication during two weeks prior to blood collection. PRP is prepared by centrifugation of the freshly drawn blood (150 g, 15 minutes at 22° C.) and the final platelet concentration is standardized at 200 000 cell/μL by dilution in autologous platelet-free plasma, prepared by centrifugation (1200 g, 10 minutes at 22° C.). The supernatant is collected. Samples of PRP are pre-incubated for 1 minute (22° C.) with varying concentrations of 5-CNAC in saline (stored at −20° C.).
(§2) In order to assess the inhibitory effect of 5-CNAC on platelet aggregation, the following studies are performed. Samples of 0.400 mL PRP containing 5-CNAC are prepared as above. To these samples is added 0.005 mL of an aggregation stimulator which is either ADP (Roche Molecular Biochemicals, Mannheim) or collagen (Horm Chemie, Munich). The final concentrations of either the ADP or collagen are as indicated in the “Results” section. Aggregation studies are performed in a Chronolog 4 channel aggregometer (type CH570VS-CH810). The aggregometer automatically calibrates the donor-dependent difference in optical density between platelet-free plasma (0% optical density) and the PRP (100% optical density) of a particular donor. The extent of aggregation is measured by expressing the maximal difference in optical density (independent of the time after the addition of the aggregation stimulator, i.e., either ADP or collagen) and normalized taking the control curves (without 5-CNAC) as an internal standard set at 100%.

[2] = test system: platelet rich plasma (PRP); test: Addition of 5-CNAC alone to PRP; platelet morphology
Procedure: as §1
In order to assess the inhibitory effect of 5-CNAC on platelet aggregation, the following studies are performed. Samples of 0.400 mL PRP containing 5-CNAC are prepared as above. To these samples is added 0.005 mL of an aggregation stimulator which is either ADP (Roche Molecular Biochemicals, Mannheim) or collagen (Horm Chemie, Munich). The final concentrations of either the ADP or collagen are as indicated in the “Results” section. […] The extent of aggregation is measured by expressing the maximal difference in optical density (independent of the time after the addition of the aggregation stimulator, i.e., either ADP or collagen) and normalized taking the control curves (without 5-CNAC) as an internal standard set at 100%.

[3] = test system: platelet rich plasma (PRP); test: ADP-induced platelet aggregation in PRP (aggregometer, optical density)
Procedure: as §1, §2

O=C(O)CCCCCCCNC(=O)c1cc(Cl)ccc1O [5-CNAC, N-(5-chlorosalicyloyl)-8-aminocaprylic acid]
concentration at which inhibition is evident ([1]; 1 μg/mL collagen): ≥ 50 µM
concentration showing platelet aggregation inhibition ([1]; 2 μg/mL collagen, one individual): about 1 mM
concentration giving some inhibition of platelet aggregation ([1]; 2.5 μg/mL collagen, PRP of one individual, not at lower concentrations): 200 µM
concentration at which inhibition of platelet aggregation becomes detectable ([1]; 5 μg/mL collagen): about 1 mM
effect on platelets (aggregation) ([1]; 5 μg/mL collagen, 100 μM 5-CNAC): unaffected
phase of the aggregation curve in which inhibition is seen ([1]; collagen-stimulated aggregation): becomes apparent in the second phase of the aggregation curve
triggering of platelet aggregation by the compound alone ([2]; 5-CNAC alone added to PRP, no stimulator): does not trigger platelet aggregation
effect on platelet morphology (swirling of the cells) ([2]; PRP): does not alter platelet morphology
inhibition of platelet aggregation at suboptimal ADP stimulation ([3]; 3 μM and 2 μM ADP compared with 5 μM ADP): platelet aggregation is inhibited by lower concentrations of 5-CNAC
concentration at which inhibition of platelet aggregation becomes apparent ([3]; 5 μM ADP (maximal stimulation), PRP from 12 healthy subjects): ≥ 2 µM
phase of the aggregation curve in which inhibition is seen ([3]; all concentrations of ADP tested): evident in the second phase of the aggregation curve, but is not observed in the initial phase
change in cell shape upon ADP addition (increase in optical density) ([3]; in the presence of 5-CNAC): undisturbed
inhibition of secondary aggregation ([3]; later part of the aggregation curve): dose-dependently inhibits the later part of the aggregation curve
